Source: patent publication US10066025B2, “Compositions and methods for detecting, treating and preventing diseases and disorders” (YALE UNIVERSITY, priority 2012, dated 2018)
Entries after “also recorded” stand apart in the source; their conditions may differ.

Assays:
[1] = test system: cisplatin-mediated AKI; test: Murine model of cisplatin AKI; assay type: in vivo, mice; details: cisplatin + peptide; Sham 0.05±0.002, cisplatin 0.177±0.02; n=3
Protocol: The efficacy of recombinant renalase in treating cisplatin-induced AKI was investigated, and the mechanisms that mediate its protective action were assessed. Cisplatin (20 mg/kg) was administered by intra-peritoneal injection to either WT or renalase KO mice. The mice were sacrificed 3 days later. Blood was collected for BUN and creatinine measurements, and kidneys harvested for histologic examination, immunofluorescence (IF), and western blotting (WB). One renal pathologist, masked to the identity of the study animal, reviewed each kidney specimen. Pathologic features were scored using an ordinal rating scale (0-4; 0=none; 1=<25%, 2=26-50%; 3=51-75%; 4=76-100%) for the presence of tubular necrosis. Morphometry of renal cortex and medulla was performed using point counting technique. Points falling on injured tubules, were counted and the percentage of lesion area was calculated as percentage of total points counted
Cisplatin (15-20 mg/kg) was administered by intraperitoneal injection (IP) to either WT or renalase KO mice under brief isoflurane anesthesia. The animals were sacrificed 3 days later. […] Pathologic features were scored using an ordinal rating scale (0-4; 0=none; 1=<25%, 2=26-50%; 3=51-75%; 4=76-100%) for the presence of tubular necrosis. […] Points falling on injured tubules were counted, and the percentage of lesion area was calculated as percentage of total points counted. […]

[2] = test system: HK-2 cells; test: HK-2 cell cisplatin toxicity (WST-1 viability, western blot); assay type: cell-based, human; details: 20 μM cisplatin, 24 hrs
Protocol: Cultured HK-2 cells were incubated with 20 μM cisplatin for 24 hours with and without recombinant renalase. Renalase expression was examined by Western blot and cell viability (mitochondrial integrity) was determined spectrophotometrically using WST-1, a tetrazolium salt that is cleaved, by mitochondrial dehydrogenases of metabolically active and viable cells, to formazan (420-480 nm) (Boehringer Mannheim, Germany).
HK2 cells (human proximal tubular line) obtained from ATTC (Manassas, Va., USA) were cultured in DMEM/F12 supplemented with glutamine, 10% FBS and antibiotics, and were maintained at 37° C. in 5% CO2. Cells were exposed to cisplatin (20 μM) in the presence or absence of renalase for 24 hrs, and cell viability was assessed by the WST1 method (Roche Applied Science, Germany). Cells were then harvested in RIPA buffer (20 mM Tris-HCl pH 7.5, 150 mM NaCl, 1 mM Na2EDTA, 1 mM EGTA, 1% NP-40, 1% sodium deoxycholate, 2.5 mM sodium pyrophosphate, 1 mM β-glycerophosphate, 1 mM Na3VO4, 1 μg/ml leupeptin) supplemented with a protease and phosphatase inhibitor cocktail (Roche Applied Science, Germany). Proteins were separated by SDS-PAGE and Western blotting was carried out using the following antibodies: anti-renalase monoclonal (Desir et al., 2012, J Am Heart Assoc. 1:e002634; (Lee et al., 2013, J Am Soc Nephrol 24:445-455); anti caspase 3 (Cell Signaling Technology, MA, USA) and anti Bcl2 (Thermo Scientific, USA). Necrotic injury in HK-2 cells (ATCC, Manassas, Va.) was induced with exposure to 2 mM H2O2 for 2-8 hr and lactate dehydrogenase (LDH) released into cell culture media was measured as described using a commercial LDH assay kit (Promega, Madison, Wis.) (Lee and Emala, 2002, American journal of physiology. Renal physiology 282:F844-852).

[3] = test system: systemic blood pressure; test: Blood pressure and heart rate in anesthetized mice; assay type: in vivo; details: for effect on systemic blood pressure: IV and subcutaneous administration, mice
Protocol: As in 14A, except that RP-H220 is injected; no significant changes in blood pressure (FIG. 14B). Effect of a single intravenous injection of RP-220 (squares) and RP-H220 (diamonds) on heart rate in wild type mice (FIG. 14C).
FIG. 21 depicts the results of experiments examining the effect of RP-220 injection on blood pressure. A single subcutaneous injection of RP-220 (n=3) or buffer (n=2) in anesthetized wild type mice; BP pressure is recorded continuously; RP-220 is given at time 0; each data point represents the mean pressure; the standard error of the means are shown.
Systolic and diastolic pressure and heart rate were measured in anesthetized mice as previously described (Desir et al., 2012, J Am Heart Assoc. 1:e002634).

Substance: RP H220: histidine tagged RP-220, SEQ ID NO: 4, HHHHHHCIRFVSIDNKKRNIESSEIG (listed as Homo sapiens)
- creatinine measured by HPLC [1]: 0.085±0.007
- cell survival / protection against cisplatin toxicity [2]: improved HK-2 cell survival
- effect on systemic blood pressure [3]: nor significant effect on systemic blood pressure; also recorded: no effect on BP
- effect on systemic blood pressure ([3]; listed as RP-H220): neither intravenous nor subcutaneous injection of RP-H220 had any effect on blood pressure
- heart rate ([3]; anesthetized WT mice): did not change
